# According to PubChem BioAssay (NCI):
# Values joined by “and” are separate entries in the source; they are usually repeats but may differ in a detail not shown here. Equal entries are not always repeated.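 Growth conditions: 96-well plates. Treatment: test compound, 48 hours, 5 concentrations. Analysis: linear interpolation between bracketing concentrations; unreached endpoints set to highest concentration. At the GI50, growth is halved. Definition used: TGI = concentration required for complete inhibition of growth.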
# Columns and labels:
# Test in all cases: NCI tumour cell line growth inhibition, 48 h
# [1] = system: DLD-1 colon
# [2] = system: HOP-18 NSCLC
# [3] = system: DMS 114 small cell lung
# [4] = system: DMS 273 small cell lung
# [5] = system: XF 498 CNS
# [6] = system: M19-MEL melanoma
# [7] = system: LXFL 529 NSCLC
# [8] = system: KM20L2 colon
# [9] = system: SN12K1 renal
# [10] = system: P388/ADR leukemia
# [11] = system: P388 leukemia
# [12] = system: RXF-631 renal
Compound,TGI [1] [µM],TGI [2] [µM],TGI [3] [µM],TGI [4] [µM],TGI [5] [µM],TGI [6] [µM],TGI [7] [µM],TGI [8],TGI [9] [µM],TGI [10] [µM],TGI [11] [µM],TGI [12] [µM],GI50 [1] [nM],GI50 [2] [µM],GI50 [12] [µM],GI50 [3] [nM],GI50 [4] [nM],GI50 [6] [nM],GI50 [8] [µM]
Cc1c(N(Cc2ccccc2)Cc2ccccc2)nc(S(C)(=O)=O)nc1S(C)(=O)=O,3.59,17.3,3.24,4.29,3.16,2.89,3.45,3.28 µM,–,–,–,–,–,–,–,–,–,–,–
CCCCCCCCCCCC1=C(O)C(=O)C=C(O)C1=O,51.9,14.6,11.9,15.7,–,–,–,35.4 µM,30.3,250,–,–,–,–,–,–,–,–,–
NS(=O)(=O)C1CCCCC1C(=O)NNC(=O)C(=O)Nc1nc(=S)[nH][nH]1 (stereo not drawn),> 100,–,> 100,> 100,> 100,> 100,> 100,> 100 µM,–,–,–,–,–,–,–,–,–,–,–
O=[N+]([O-])c1cccc2c1[nH]c1c(-c3ccccc3)nccc12,> 48.9,2.82,5.75,7.58,11.7,6.14,–,10.8 µM,8.11,11.7,9.75,–,–,–,–,–,–,–,–
COc1ccc(Sc2ccccc2[N+](=O)[O-])cc1,> 100,> 100,–,> 100,–,> 100,> 100,–,–,–,–,> 100,–,–,–,–,–,–,–
COC1=C(C)C(=O)C2=C(C1=O)C1C3CC4=C(C(=O)C(OC)=C(C)C4=O)C(CNC(=O)C(C)=O)N3C(C#N)C(C2)N1C (stereo not drawn),0.278,–,–,–,–,–,–,0.246 µM and 1.03 µM,–,0.349,–,–,0.0404,0.000212,0.000385,0.0215,0.0259,0.0946,0.00267
Cc1ccc(C)c(C(=O)CC2OC(O)C(Cl)C2Cl)c1 (stereo not drawn),34.4,> 100,> 100,> 100,> 100,> 100,32.5,> 100 µM,–,–,–,–,–,–,–,–,–,–,–
Nc1cc(O)c2cc(N=Nc3ccc(N=Nc4ccc(N=Nc5ccc6cc(S(=O)(=O)O)cc(S(=O)(=O)O)c6c5)c5ccccc45)c4cc(S(=O)(=O)O)ccc34)c(S(=O)(=O)O)cc2c1,> 100,> 100,–,> 100,> 100,> 100,–,–,> 100,–,> 100,–,–,–,–,–,–,–,–
